Values of other authors, collected in paper PMC9095539 (Clinical Pharmacokinetics, 2022).

Columns and labels:
[1] = BCS; no reference given

## CCCS(=O)(=O)N[C@H]1C[C@@H](N(C)c2ncnc3[nH]ccc23)C1 [abrocitinib, N-{cis-3-[Methyl(7H-pyrrolo[2,3-d]pyrimidin-4-yl)amino]cyclobutyl}propane-1-sulfo namide]
other
  Eliminated unchanged in urine: 1.0–4.4%
once-daily dosing
  Time to steady-state plasma concentrations: ≤ 4 days
oral, healthy individuals
  Time to reach maximum levels: ≤ 1.5 h
CYP2C19
  Contribution to hepatic metabolism: 53%
CYP2C9
  Contribution to hepatic metabolism: 30%
CYP3A4
  Contribution to hepatic metabolism: 11%
CYP2B6
  Contribution to hepatic metabolism: 7%
[1]
  Permeability: high
